The source of these data is ChEMBL document CHEMBL1121777, “Synthesis and antidepressant activity of substituted (omega-aminoalkoxy)benzene derivatives” (J Med Chem, 1981).

Data set [1] is filed under the species Mus musculus. Description: The compound was tested for it's ability to prevent the reserpine induced hypothermia in mice. It counts as functional.
The species named for data set [2] is Mus musculus. Description: Ability to prevent the reserpine induced hypothermia in mice relative to amitriptyline. It counts as functional.
The subject of data set [3] is Mus musculus. Description: The compound was tested for it's ability to reverse the reserpine induced hypothermia in mice, po. It counts as functional.
For data set [4], the system named is Mus musculus. Description: Antiphysostigmine effect was measured as ED50,po. It counts as functional.
Data set [5] is described as follows: Toxicity was measured as LD50,po. The format is organism-based. The note with it: mouse, in vivo.
The species entered for the next data set is Cavia porcellus. Description: Concentration required to reducing the histamine induced contraction by 50% was measured. It counts as functional.
Data set [6] concerns Rattus norvegicus. Description: Antimuricide effect was observed in the olfactory bulb removed rats; antimuricide effect at 30 mg/kg; ++ = 51-70%. The format is functional.
For data set [7], the system named is Mus musculus. Description: Muscle relaxant effect was measured as ED50 which is the dose that causes muscle relaxation in 50% of the mice, po. It counts as functional.
Data set [8] is filed under the species Mus musculus. Description: The compound was tested for it's ability to reverse the reserpine induced hypothermia in mice. The format is functional.
The subject of data set [9] is Rattus norvegicus. In words: Antimuricide effect was observed in the olfactory bulb removed rats; antimuricide effect at 30 mg/kg; ++ = 51 - 70%. It counts as functional.
Data set [10] deals with Rattus norvegicus. Description: Antimuricide effect was observed in the olfactory bulb removed rats; antimuricide effect at 30 mg/kg; + = 31-50%. It counts as functional.
Data set [11] relates to Rattus norvegicus. Description: Antimuricide effect was observed in the olfactory bulb removed rats; antimuricide effect at 30 mg/kg; + = 31 - 50%. The format is functional.

Values after ≈ are worked out from the molar mass of the structure shown.

With `CNCCCCOc1ccccc1Nc1ccccc1.Cl`, the Relative potency in the data set filed under Mus musculus [1] is 0.29. `CNCCCCOc1ccc(Cl)cc1Cc1ccccc1.Cl` returned a Relative potency in the data set filed under Mus musculus [2] of 0.17. The same measure, in the same setting: for `CNCCCCOc1ccccc1[S+]([O-])c1ccccc1.Cl` (stereo not given) the value was 0.49; for `CNCCCCOc1ccccc1C(=O)Nc1ccccc1.Cl`, 0.36; for `CN(C)CCCCOc1ccccc1Oc1ccccc1.Cl`, 0.58. Still for that read-out and setting: for `CNCCCCOc1ccccc1S(=O)(=O)c1ccccc1.Cl` the value was 0.17.

Consider `Cc1ccc(Cc2ccccc2OCCCCN(C)C)cc1.Cl`, for which, in the data set listed under Mus musculus [2], the Relative potency is recorded as 0.18. Same read-out and setting: for `CNCCCCOc1ccccc1Cc1ccccc1OC.Cl` the value was 0.85; for `CNCCCCOc1ccccc1Cc1ccc(Cl)cc1.Cl`, 0.27. Same read-out and setting: the same measure for `CNCCCCOc1ccccc1C1CCCCC1.Cl`: 0.28; for `COc1ccc(Cc2ccccc2OCCCCN(C)C)cc1.Cl`: 0.

As to `CNCCCCOc1ccc(Cc2ccccc2)cc1.Cl`, the Relative potency in the data set filed under Mus musculus [2] came out at 0. `Cl.NCCCCOc1ccccc1Cc1ccccc1`: in the data set filed under Mus musculus [2], the Relative potency turned out to be 0. Still for that read-out and setting: for `CCNCCCOc1ccccc1Cc1ccccc1.Cl` the value was 0; for `CN(C)CCCOc1ccccc1Cc1ccccc1.Cl`, 0; for `CNCCCCOc1ccccc1C(C)c1ccccc1.Cl` (stereo not given), 0.66.

Molecule `CNCCCCOc1ccccc1C(O)c1ccccc1.Cl` (stereo not given) had a Relative potency in the data set filed under Mus musculus [2] of 0. The same measure, in the same setting: for `CN(C)CCCCOc1ccccc1Sc1ccccc1.Cl` the value was 0.7. Regarding `CNCCCCOc1ccccc1Oc1ccccc1.Cl`, the ED10 in the data set with Mus musculus [3] worked out at 8.8 mg/kg. Also, the median effective dose (ED50) with Mus musculus [4] and in the data set with Mus musculus [7] was over 200 mg/kg in each case. The molecule also had a Relative potency in the data set filed under Mus musculus [2] of 1.1. Moreover, the 50% lethal dose (LD50) in [5] worked out at 600 mg/kg. In the data set filed under Cavia porcellus, this molecule showed an IC50 of 1.6 µg/mL. Also, the Effect with Rattus norvegicus [6] is on record as 51%. `CNCCCCOc1ccc(O)cc1Cc1ccccc1.Cl` returned a Relative potency in the data set listed under Mus musculus [2] of 0.31. The molecule `Cl.c1ccc(Cc2ccccc2OCCCCN2CCCCC2)cc1` showed a Relative potency in the data set listed under Mus musculus [2] of 0.41.

Turning to `CN(C)CCCCOc1ccccc1Cc1ccccc1.Cl`, the Relative potency in the data set listed under Mus musculus [2] worked out at 0. Same read-out and setting: the same measure for `CNCCCCOc1ccccc1OCc1ccccc1.Cl`: 0. With `CNCCCCOc1ccccc1Cc1ccccc1.Cl`, the ED10 in the data set listed under Mus musculus [8] came out at 12.5 mg/kg. The median effective dose (ED50) in the data set with Mus musculus [4] and in the data set with Mus musculus [7] was over 200 mg/kg throughout. The same molecule returned a Relative potency in the data set filed under Mus musculus [2] of 0.78. Also, the 50% lethal dose (LD50) in [5] worked out at 1000 mg/kg. In the data set filed under Cavia porcellus, this molecule returned an IC50 of 1.1 µg/mL. As to `CNCCCCOc1ccccc1Cc1ccc(OC)cc1.Cl`, the Relative potency in the data set listed under Mus musculus [2] was 0. On to `CCOc1ccccc1OCCCCNC.Cl`, for which, in the data set filed under Mus musculus [2], the Relative potency is on record as 0.

In turn, `CNCCOc1ccccc1Cc1ccccc1.Cl` registered a Relative potency in the data set filed under Mus musculus [2] of 0. `CN(C)CCOc1ccccc1Cc1ccccc1.Cl` displayed a Relative potency in the data set filed under Mus musculus [2] of 0. The molecule also showed an IC50 in the data set listed under Cavia porcellus of 0.001 µg/mL. Take `CNCCCCOc1ccccc1Cc1ccc(C)cc1.Cl`: the Relative potency in the data set filed under Mus musculus [2] turned out to be 0.44. The same measure, in the same setting: the same measure for `CNCCCCOc1ccccc1CCc1ccccc1.Cl`: 0. On the same count and under the same terms, for `CN(C)CCCCOc1ccc(Cl)cc1Cc1ccccc1.Cl` the value was 0.26; for `CN(C)CCCCOc1ccccc1Cc1ccccc1O.Cl`, 0.77; for `CN(C)CCCCOc1ccccc1Cc1ccc(Cl)cc1.Cl`, 0.17. Still for that read-out and setting: for `CNCCCCOc1ccccc1Cl.Cl` the value was 0. `CNCCCCOc1ccc(OC)cc1.Cl` yielded a Relative potency in the data set filed under Mus musculus [2] of 0. Still for that read-out and setting: the same measure for `CNCCCCCOc1ccccc1Cc1ccccc1.Cl`: 0.57; for `CCNCCCCOc1ccccc1Cc1ccccc1.Cl`: 0.53; for `CN1CCN(CCCCOc2ccccc2Cc2ccccc2)CC1.Cl`: 0.

In the data set filed under Mus musculus [2], `CC(c1ccccc1)c1ccccc1OCCCCN(C)C.Cl` (stereo not given) returned a Relative potency of 0.36.

Molecule `Cl.c1ccc(Cc2ccccc2OCCCCN2CCOCC2)cc1` showed a Relative potency in the data set listed under Mus musculus [2] of 0.3. On the same count and under the same terms, the same measure for `CN(C)CCCCOc1ccccc1Cl.Cl`: 0.47; for `CNCCCCOc1ccccc1C(=O)c1ccccc1.Cl`: 0.

Regarding `CNCCCCOc1ccccc1Cc1ccccc1O.Cl`, the ED10 in the data set filed under Mus musculus [8] was found to be 15 mg/kg. The same molecule yielded an Effect in the data set on Rattus norvegicus [9] of 51%. Further, the ED50 in the data set with Mus musculus [4] and with Mus musculus [7] was over 200 mg/kg throughout. Also, the Relative potency in the data set listed under Mus musculus [2] is on record as 0.99. Also, the LD50 in data set [5] amounted to 750 mg/kg. This molecule also had a concentration for half-maximal inhibition (IC50) in the data set filed under Cavia porcellus of 2.5 µg/mL. Take `CN(C)CCCCCOc1ccccc1Cc1ccccc1.Cl`: the Relative potency in the data set listed under Mus musculus [2] was found to be 0.23. Consider `CNCCCCOc1ccccc1Sc1ccccc1.Cl`, for which the ED10 in the data set on Mus musculus [3] came to 15 mg/kg. For the same molecule, the Effect in the data set with Rattus norvegicus [10] is listed as 31%. Also, the ED50 with Mus musculus [4] and with Mus musculus [7] was over 200 mg/kg throughout. In addition, the Relative potency in the data set listed under Mus musculus [2] is listed as 0.89. In data set [5], this molecule showed a 50% lethal dose (LD50) of 980 mg/kg. For the same molecule, the IC50 in the data set listed under Cavia porcellus stood at 2.2 µg/mL. Molecule `Cc1cccc(Cc2ccccc2)c1OCCCCN(C)C.Cl` gave a Relative potency in the data set filed under Mus musculus [2] of 0.66. With `CN(C)CCC=C1c2ccccc2CCc2ccccc21` [AMITRIPTYLINE], the values for the ED50 in the data set with Mus musculus [4] and in the data set on Mus musculus [7] were 35 mg/kg and 40 mg/kg, respectively. The Relative potency in the data set listed under Mus musculus [2] came out at 5.8. For the same molecule, the LD50 in data set [5] worked out at 300 mg/kg. In addition, the IC50 in the data set filed under Cavia porcellus was found to be 0.0083 µg/mL (≈ 0.0299 µM). Further, the Effect in the data set with Rattus norvegicus [11] came to 31%. As to `CN(C)CCCN1c2ccccc2CCc2ccccc21` [IMIPRAMINE], the median effective dose (ED50) with Mus musculus [4] is 120 mg/kg; with Mus musculus [7] it was 190 mg/kg. For the same molecule, in the data set filed under Cavia porcellus, the IC50 stood at 0.032 µg/mL (≈ 0.114 µM). The Effect in the data set with Rattus norvegicus [11] came out at 31%.

As a reminder, the ED50 is the midpoint of the dose-response relation. Broadly, the LD50 is the dose at which mortality reaches 50%. A low value points to a more toxic substance. As a reminder, the IC50 is the midpoint of a concentration-inhibition curve.
